From ChEMBL document CHEMBL3639170, “Carboxy isatin hydrazones and their esters as Shp2 inhibitors” (2014)

Target: T1, Tyrosine-protein phosphatase non-receptor type 11 (Homo sapiens, UniProt Q06124)
T1 sequence (Q06124 whole entry): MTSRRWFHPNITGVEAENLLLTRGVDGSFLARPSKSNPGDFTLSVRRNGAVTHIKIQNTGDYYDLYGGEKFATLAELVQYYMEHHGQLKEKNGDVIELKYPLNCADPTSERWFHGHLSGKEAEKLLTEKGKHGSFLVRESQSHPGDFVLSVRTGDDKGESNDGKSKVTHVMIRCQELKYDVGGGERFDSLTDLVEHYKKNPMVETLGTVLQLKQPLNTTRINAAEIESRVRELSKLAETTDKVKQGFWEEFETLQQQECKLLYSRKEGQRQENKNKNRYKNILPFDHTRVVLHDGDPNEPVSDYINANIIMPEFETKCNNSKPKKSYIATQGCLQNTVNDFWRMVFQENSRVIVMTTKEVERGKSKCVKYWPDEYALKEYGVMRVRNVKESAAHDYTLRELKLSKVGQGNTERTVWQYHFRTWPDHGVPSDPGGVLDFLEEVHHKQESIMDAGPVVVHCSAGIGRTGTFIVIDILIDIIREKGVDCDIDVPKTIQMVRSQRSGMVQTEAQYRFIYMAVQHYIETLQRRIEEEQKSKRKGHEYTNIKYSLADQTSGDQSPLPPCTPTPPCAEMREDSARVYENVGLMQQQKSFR
Experiment: Inhibition Assay: In vitro Shp2 PTP activity inhibition assay for determination of IC50 was performed with a recombinant GST-Shp2 PTP domain protein using 6,8-difluoro-4-methylumbelliferyl phosphate (DiFMUP, Invitrogen) as the substrate similar to that described previously (Chen, et al., Discovery of a novel shp2 protein tyrosine phosphatase inhibitor. Mol Pharmacol 2006; 70:562-70).

Work on `O=C(O)C(O)CC(=O)N1CCc2cc(S(=O)(=O)N3CCN(c4cccc(Cl)c4)CC3)ccc21` (stereo unspecified) yielded an IC50 of 8.2 µM.
